Laboratory results reported in patent publication US10590143B2, “Herbicidally active (alkynyl-phenyl)-substituted cyclic dione compounds and derivatives thereof” (Syngenta Limited, priority 2013, dated 2020).

Experiments:
Experiment in all cases: Biological Example 2 glasshouse assay for herbicidal activity
Type in all cases: in vivo
[1] = system: Brachiaria plantaginea (BRAPL); conditions: Urochloa plantaginea, post-emergence, 360 h, 14 or 15 DAA, 0.2% v/v X-77, read-out: percentage phytotoxicity BRAPL
Description: (§1) Seeds of a variety of monocotyledonous and dicotyledonous test plants are sown in standard soil in pots. The plants are cultivated for one day (for pre-emergence) or for about 12 days (range=10-13 days) (for post-emergence) under controlled conditions in a glasshouse (warm climate species at 24/18° C., cool climate species at 20/16° C., both at day/night; 16 hours light; 65% humidity).
(§2) An “instant formulation”, known as the “IF50”, containing 50 g/litre (i.e. 5% w/v) of the “technical” (i.e. unformulated) active ingredient is prepared by dissolving the active ingredient in a mixture of organic solvents and emulsifier, details of which are provided in the Table below. This IF50 is then mixed with a small, variable amount of acetone to aid dissolution, before addition of a 0.2% v/v aqueous solution of the adjuvant X-77 (which is a mixture of alkyl aryl polyoxyethylene glycols and free fatty acids in isopropanol, CAS Registry number 11097-66-8), as the aqueous diluent, to form an aqueous spray solution which contains a predetermined concentration of the active ingredient (which varies depending on the application rate of the active ingredient to the plants) and 0.2% v/v of the adjuvant X-77. This aqueous spray solution is then sprayed onto the plants, after one day's cultivation (for pre-emergence) or after about 12 days' cultivation (for post-emergence).
(§3) The test plants are then grown on, in a glasshouse (greenhouse) under controlled conditions (at either 24/18° C. or 20/16° C. (day/night) as mentioned above; 16 hours light; 65% humidity) and are watered twice daily. Either 14 or 15 days after application of the herbicide (14 or 15 DAA) (for post-emergence), or 20 days after application of the herbicide (20 DAA) (for pre-emergence), the test plants are evaluated visually, and an assessed percentage phytotoxicity score is given for each herbicidal application on each plant species (where 100%=total damage to plant; 0%=no damage to plant).
(§4) Some of the typical test plants are as follows: • Cool climate crop plants: Triticum aestivum (TRZAW, winter wheat), Brassica napus (BRSNN, rape, also called oilseed rape or rapeseed), Beta vulgaris (BEAVA, sugarbeet). • Warm climate crop plants: Glycine max (GLXMA, soybean). • Cool climate (“cool season”) grassy monocotyledonous weeds: Alopecurus myosuroides (ALOMY), Avena fatua (AVEFA), Lolium perenne (LOLPE), Poa annua (POAAN), Bromus tectorum (BROTE). • Warm climate (“warm season”) grassy monocotyledonous weeds: Setaria faberi (SETFA), SORVU (Sorghum bicolor (L.) Moench ssp. Bicolor, or Sorghum vulgare Pers.), Digitaria sanguinalis (DIGSA), Echinochloa crus-galli (ECHCG), Brachiaria plantaginea (BRAPL); Zea mays (ZEAMX, corn, maize, e.g. volunteer corn).

[2] = system: Beta vulgaris (BEAVA, sugarbeet); conditions: post-emergence, 360 h, 14 or 15 DAA, 0.2% v/v X-77, read-out: percentage phytotoxicity BEAVA
Description: as §1, §2, §3, §4

[3] = system: Zea mays (ZEAMX, corn, maize, e.g. volunteer corn); conditions: Zea mays, post-emergence, 360 h, 14 or 15 DAA, 0.2% v/v X-77, read-out: percentage phytotoxicity ZEAMX
Description: as §1, §2, §3, §4

[4] = system: Digitaria sanguinalis (DIGSA); conditions: post-emergence, 360 h, 14 or 15 DAA, 0.2% v/v X-77, read-out: percentage phytotoxicity DIGSA
Description: as §1, §2, §3, §4

[5] = system: SORVU (Sorghum bicolor (L.) Moench ssp. Bicolor, or Sorghum vulgare Pers.); conditions: post-emergence, 360 h, 14 or 15 DAA, 0.2% v/v X-77, read-out: percentage phytotoxicity SORVU
Description: as §1, §2, §3, §4

Lolium perenne (LOLPE) = conditions: Lolium perenne, post-emergence, 360 h, 14 or 15 DAA, 0.2% v/v X-77, read-out: percentage phytotoxicity LOLPE
Description: as §1, §2, §3, §4

[6] = system: Triticum aestivum (TRZAW, winter wheat); conditions: post-emergence, 360 h, 14 or 15 DAA, 0.2% v/v X-77, read-out: percentage phytotoxicity TRZAW
Description: as §1, §2, §3, §4

Setaria faberi (SETFA) = conditions: post-emergence, 360 h, 14 or 15 DAA, 0.2% v/v X-77, read-out: percentage phytotoxicity SETFA
Description: as §1, §2, §3, §4

[7] = system: Brassica napus (BRSNN, rape); conditions: Brassica napus, 360 h, post-emergence, 14 or 15 DAA, 0.2% v/v X-77, read-out: percentage phytotoxicity BRSNN
Description: as §1, §2, §3, §4

[8] = system: Echinochloa crus-galli (ECHCG); conditions: Echinochloa crus-galli, post-emergence, 360 h, 14 or 15 DAA, 0.2% v/v X-77, read-out: percentage phytotoxicity ECHCG
Description: as §1, §2, §3, §4

Avena fatua (AVEFA) = conditions: post-emergence, 360 h, 14 or 15 DAA, 0.2% v/v X-77, read-out: percentage phytotoxicity AVEFA
Description: as §1, §2, §3, §4

[9] = system: Alopecurus myosuroides (ALOMY); conditions: post-emergence, 360 h, 14 or 15 DAA, 0.2% v/v X-77, read-out: percentage phytotoxicity ALOMY
Description: as §1, §2, §3, §4

[10] = system: Glycine max (GLXMA, soybean); conditions: post-emergence, 360 h, 14 or 15 DAA, 0.2% v/v X-77, read-out: percentage phytotoxicity GLXMA
Description: as §1, §2, §3, §4

| SMILES | pest or weed control at 30 g/ha [1] [%] | pest or weed control at 250 g/ha [1] [%] | plant injury at 30 g/ha [2] [%] | plant injury at 250 g/ha [2] [%] | pest or weed control at 30 g/ha [3] [%] | pest or weed control at 250 g/ha [3] [%] | pest or weed control at 30 g/ha [4] [%] | pest or weed control at 250 g/ha [4] [%] | pest or weed control at 30 g/ha [5] [%] | pest or weed control at 250 g/ha [5] [%] | pest or weed control at 30 g/ha (Lolium perenne (LOLPE)) [%] | pest or weed control at 250 g/ha (Lolium perenne (LOLPE)) [%] | plant injury at 30 g/ha [6] [%] | plant injury at 250 g/ha [6] [%] | pest or weed control at 30 g/ha (Setaria faberi (SETFA)) [%] | pest or weed control at 250 g/ha (Setaria faberi (SETFA)) [%] | plant injury at 30 g/ha [7] [%] | plant injury at 250 g/ha [7] [%] | pest or weed control at 30 g/ha [8] [%] | pest or weed control at 250 g/ha [8] [%] | further results |
| --- | --- | --- | --- | --- | --- | --- | --- | --- | --- | --- | --- | --- | --- | --- | --- | --- | --- | --- | --- | --- | --- |
| CC#Cc1cc(F)c(C2=C(OC(=O)SCC)C3CCC(C3)C2=O)c(OC)c1 (stereo not shown) [Compound P4] | 100 | 100 | 0 | 0 | 100 | 100 | 80 | 100 | 100 | 100 | 90 | 100 | 80 | 100 | 90 | 100 | 50 | 80 | 90 | 100 | pest or weed control at 30 g/ha (Avena fatua (AVEFA)): 90%; pest or weed control at 250 g/ha (Avena fatua (AVEFA)): 100%; pest or weed control at 30 g/ha [9]: 80%; pest or weed control at 250 g/ha [9]: 100%; plant injury at 30 g/ha [10]: 10%; plant injury at 250 g/ha [10]: 20% |
| CC#Cc1cc(F)c(C2=C(OC(=O)OC(C)C)C3CCC(C3)C2=O)c(OC)c1 (stereo not shown) [Compound P3] | 100 | 100 | 0 | 0 | 100 | 100 | 100 | 100 | 100 | 100 | 90 | 100 | 80 | 90 | 100 | 100 | 10 | 80 | 100 | 100 | pest or weed control at 30 g/ha (Avena fatua (AVEFA)): 90%; pest or weed control at 250 g/ha (Avena fatua (AVEFA)): 90%; pest or weed control at 30 g/ha [9]: 70%; pest or weed control at 250 g/ha [9]: 90%; plant injury at 30 g/ha [10]: 0%; plant injury at 250 g/ha [10]: 0% |
